Results as given in patent US11896609B2, “Pharmaceutical composition for treating inflammatory diseases comprising germanium telluride nanosheets coated with polyvinylpyrrolidone” (Industry-Academic Cooperation Foundation, priority 2021, dated 2024).

Columns and labels:
[1] = IVIS fluorescence imaging biodistribution after oral administration; assay type: in vivo, mice; details: 5 mg/kg oral, IVIS at 1, 6 and 24 hours
Experimental: After GeTe-PVP NSs (5 mg/kg, 100 μl) or an ICG solution (5 mg/kg, 200 μl) were orally administered, the mice were subjected to laparotomy at 1, 6, and 24 hours, and the biodistribution of GeTe-PVP NSs and the ICG solution was photographed with an in vivo imaging system (IVIS). Furthermore, the stomach, intestine, liver, lungs, pancreas, heart, and kidneys were removed at each time to confirm their biodistribution by fluorescence imaging with IVIS and quantify the amounts of GeTe-PVP NSs and ICG accumulated in each organ by FL intensity.

[2] = system: DSS-induced colitis model; assay: DSS-induced inflammatory bowel disease (colitis) model; assay type: in vivo, C57BL/6 mice
Experimental: 7- to 8-week-old male C57BL/6 mice (Orient Bio Inc.; Seongnam, Korea) were used for the experiments. Colitis was induced by allowing an acute inflammatory bowel disease model to ingest drinking water to which 2% dextran sodium sulfate (DSS; MP Biochemical, Irvine, Ca, USA) was added for 7 days. A normal control group was allowed to ingest the same amount of water for the same time (FIG. 19).
The experimental groups were classified into the following four groups (Table 1): a normal control group (Group 1, n=8), a group in which colitis is induced by DSS (Group 2, n=8), a group in which sulfasalazine (SAZ), which is a common therapeutic agent, was administered to a DSS-induced colitis model (Group 3, n=8, SAZ=200 mg/kg/day), and a group in which GeTe-PVP NSs were administered to a DSS-induced colitis model (Group 4, n=8, GeTe-PVP NS=5 mg/kg/day).
Body weight changes and the disease activity index (DAI) of mice were confirmed every day for 7 days. Each score of weight loss index (0 to 4; FIG. 20A), rectal bleeding observed with the naked eye in the stool or anus (0 to 3; FIG. 20C), and stool consistency (0 to 3; FIG. 20B) is summed to evaluate the disease activity index on a 10-point scale (FIG. 20D). [Stevceva L, Pavli P, Husband A, Ramsay A, Doe WF. Dextran sulphate sodium-induced colitis is ameliorated in interleukin 4 deficient mice. Genes Immun 2001; 2:309-316.] […]

With CC1(C)C(/C=C/C=C/C=C/C=C2\N(CCCCS(=O)(=O)O)c3ccc4ccccc4c3C2(C)C)=[N+](CCCCS(=O)(=O)[O-])c2ccc3ccccc3c21 [ICG solution, Indocyanine green] the “time after administration until which a large amount remained in the intestine (FL intensity)” value [1] was ≤ 1 h.
For O=C(O)c1cc(/N=N/c2ccc(S(=O)(=O)Nc3ccccn3)cc2)ccc1O [sulfasalazine], the “disease activity index (DAI) compared to DSS group (Group 2)” value ([2]; DSS colitis mice, SAZ 200 mg/kg/day, GeTe-PVP NS 5 mg/kg/day) was “lower DAI compared to Group 2” and the “inflammatory findings (H&E, PAS staining)” value ([2]; proximal and distal regions of excised intestine) was “many inflammatory findings were not found”.
